From patent publication US20070208173A1, “CRYSTALLINE HYDRATES OF CEFDINIR CALCIUM SALT” (priority 2006, published 2007)

Key:
Format in all cases: physicochemical
Stability to temperature = conditions: temperatures between about 25° C. and about 55° C.
Procedure: (§1) Cefdinir, calcium salt pentahydrate is stable at temperatures between about 25° C. and about 55° C.

[1] = Moisture Sorption/Desorption
Procedure: as §1

Solubility in solvents = experiment: Solubility in solvents
Procedure: as §1

## C=CC1=C(C(=O)[O-])N2C(=O)[C@@H](NC(=O)/C(=N\O)c3csc(N)n3)[C@H]2SC1.C=CC1=C(C(=O)[O-])N2C(=O)[C@@H](NC(=O)/C(=N\O)c3csc(N)n3)[C@H]2SC1.O.O.O.O.O.[Ca+2] (single isomer, unassigned) [Cefdinir, calcium salt pentahydrate, calcium (6R-(6α,7β(Z)))-7-(((2-amino-1,3-thiazol-4-yl)(hydroxyimino)acetyl)amino)-3-ethenyl-8-oxo-5-thia-1-azabicyclo[4.2.0]oct-2-ene-2-carboxylate (cefdinir, calcium salt, syn-isomer) pentahydrate]
Stability to temperature
  stability at temperature: stable
[1]; Time 0.1 min, 24.9 ° C., Rel. Humid. 51.63 (start)
  Weight: 6.2888 mg
[1]; Time 32.6 min, 25.0 ° C., Rel. Humid. 4.83
  Weight: 6.2448 mg
[1]; Time 48.6 min, 25.0 ° C., Rel. Humid. 14.82
  Weight: 6.2605 mg
[1]; Time 61.7 min, 25.0 ° C., Rel. Humid. 24.85
  Weight: 6.2704 mg
[1]; Time 74.6 min, 25.0 ° C., Rel. Humid. 34.82
  Weight: 6.2782 mg
[1]; Time 87.6 min, 24.9 ° C., Rel. Humid. 44.75
  Weight: 6.2849 mg
[1]; Time 100.6 min, 25.0 ° C., Rel. Humid. 54.93
  Weight: 6.2910 mg
[1]; Time 113.6 min, 25.0 ° C., Rel. Humid. 64.86
  Weight: 6.2957 mg
[1]; Time 125.2 min, 25.0 ° C., Rel. Humid. 74.81
  Weight: 6.3005 mg
[1]; Time 138.9 min, 25.0 ° C., Rel. Humid. 84.80
  Weight: 6.3064 mg
[1]; Time 220.7 min, 25.1 ° C., Rel. Humid. 94.58
  Weight: 6.3638 mg
[1]; Time 241.5 min, 25.1 ° C., Rel. Humid. 85.41 (desorption)
  Weight: 6.3265 mg
[1]; Time 256.2 min, 25.1 ° C., Rel. Humid. 75.18 (desorption)
  Weight: 6.3087 mg
[1]; Time 271.2 min, 25.1 ° C., Rel. Humid. 65.07 (desorption)
  Weight: 6.3015 mg
[1]; Time 284.1 min, 25.1 ° C., Rel. Humid. 55.11 (desorption)
  Weight: 6.2965 mg
[1]; Time 300.4 min, 25.1 ° C., Rel. Humid. 45.16 (desorption)
  Weight: 6.2899 mg
[1]; Time 313.1 min, 25.1 ° C., Rel. Humid. 35.08 (desorption)
  Weight: 6.2827 mg
[1]; Time 326.1 min, 25.0 ° C., Rel. Humid. 25.12 (desorption)
  Weight: 6.2745 mg
[1]; Time 338.7 min, 25.0 ° C., Rel. Humid. 15.13 (desorption)
  Weight: 6.2650 mg
[1]; Time 360.9 min, 25.0 ° C., Rel. Humid. 5.03 (desorption)
  Weight: 6.2484 mg
Solubility in solvents; acetone
  solubility in acetone: less than 1 mg/mL
Solubility in solvents; acetonitrile
  solubility in acetonitrile: less than 1 mg/mL
Solubility in solvents; dichloromethane
  solubility in dichloromethane: less than 1 mg/mL
Solubility in solvents; dimethylsulfoxide
  solubility in dimethylsulfoxide: greater than 96 mg/mL
Solubility in solvents; ethanol
  solubility in ethanol: less than 1 mg/mL
Solubility in solvents; methanol
  solubility in methanol: less than 1 mg/mL
Solubility in solvents; water
  solubility in water: about 3 mg/mL
